The values that follow come from PMC9074879, “Solubilization, purification, and ligand binding characterization of G protein-coupled receptor SMO in native membrane bilayer using styrene maleic acid copolymer” (PeerJ, 2022).

Molecules are shown by their SMILES.

The assay concerns the target T1, Smoothened (SMO) (Homo sapiens, UniProt Q99835).
T1 construct: human SMO transmembrane domain (residues 190-555) fused with N-terminal 10-His tag and thermostabilized apocytochrome b562RIL, in SMA-nanodiscs
T1 sequence (Q99835 190-555): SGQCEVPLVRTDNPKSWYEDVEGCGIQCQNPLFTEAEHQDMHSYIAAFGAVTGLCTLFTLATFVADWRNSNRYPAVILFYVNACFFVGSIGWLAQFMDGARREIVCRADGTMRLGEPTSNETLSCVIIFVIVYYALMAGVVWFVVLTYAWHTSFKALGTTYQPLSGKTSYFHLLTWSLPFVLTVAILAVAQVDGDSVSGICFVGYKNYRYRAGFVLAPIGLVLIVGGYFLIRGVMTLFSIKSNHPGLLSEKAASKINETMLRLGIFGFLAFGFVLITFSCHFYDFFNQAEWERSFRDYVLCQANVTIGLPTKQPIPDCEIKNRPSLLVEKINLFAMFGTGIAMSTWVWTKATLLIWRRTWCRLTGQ
Briefly: ligand-observed 1D 1H NMR titration (line broadening), purified SMO in SMA-nanodiscs. It counts as binding.

Turning to `CN[C@H]1CC[C@H](N(Cc2cccc(-c3ccncc3)c2)C(=O)c2sc3ccccc3c2Cl)CC1` [SAG], the Kd was determined as 15.9 ± 4.4 nM.
The result for `Cc1nn(-c2ccccc2)c(C)c1/C=N/N1CCN(Cc2ccccc2)CC1` [SANT-1] reads 2.3 ± 1.2 nM.
